In patent US10584128B2, “Bicyclic dihydropyrimidine-carboxamide derivatives as Rho-Kinase inhibitors” (CHIESI FARMACEUTICI S.p.A., priority 2016, dated 2020):
pKi: −log10 of the molar value.

Assays:
[1] = target: Rho kinase 2 (Homo sapiens, UniProt O75116); assay: In vitro Rho kinase inhibitory activity assay (ADP-Glo kit, Myelin Basic Protein substrate); assay type: biochemical; details: 10 μM ATP, 25° C., read-out: ROCK2 inhibitory activity (Ki, range of activity)
Summary of the method: (§1)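 ADP-Glo luminescence read-out. Enzyme (ROCK1 or ROCK2) + compound 30 min, then 10 μM ATP final, 1 h, 25 °C; 2.5 μM MBP peptide substrate, Tris pH7.5/MgCl2/BSA/DTT buffer, 1% DMSO. IC50 from variable-slope fit (0–100% fixed); Ki via Cheng-Prusoff.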

[2] = target: Rho kinase 1 (Homo sapiens, UniProt Q13464); assay: as above; assay type: biochemical; details: 10 μM ATP, 25° C., read-out: ROCK1 inhibitory activity (Ki, range of activity)
Summary of the method: as §1

Sequence of Rho kinase 1 (Q13464 whole entry): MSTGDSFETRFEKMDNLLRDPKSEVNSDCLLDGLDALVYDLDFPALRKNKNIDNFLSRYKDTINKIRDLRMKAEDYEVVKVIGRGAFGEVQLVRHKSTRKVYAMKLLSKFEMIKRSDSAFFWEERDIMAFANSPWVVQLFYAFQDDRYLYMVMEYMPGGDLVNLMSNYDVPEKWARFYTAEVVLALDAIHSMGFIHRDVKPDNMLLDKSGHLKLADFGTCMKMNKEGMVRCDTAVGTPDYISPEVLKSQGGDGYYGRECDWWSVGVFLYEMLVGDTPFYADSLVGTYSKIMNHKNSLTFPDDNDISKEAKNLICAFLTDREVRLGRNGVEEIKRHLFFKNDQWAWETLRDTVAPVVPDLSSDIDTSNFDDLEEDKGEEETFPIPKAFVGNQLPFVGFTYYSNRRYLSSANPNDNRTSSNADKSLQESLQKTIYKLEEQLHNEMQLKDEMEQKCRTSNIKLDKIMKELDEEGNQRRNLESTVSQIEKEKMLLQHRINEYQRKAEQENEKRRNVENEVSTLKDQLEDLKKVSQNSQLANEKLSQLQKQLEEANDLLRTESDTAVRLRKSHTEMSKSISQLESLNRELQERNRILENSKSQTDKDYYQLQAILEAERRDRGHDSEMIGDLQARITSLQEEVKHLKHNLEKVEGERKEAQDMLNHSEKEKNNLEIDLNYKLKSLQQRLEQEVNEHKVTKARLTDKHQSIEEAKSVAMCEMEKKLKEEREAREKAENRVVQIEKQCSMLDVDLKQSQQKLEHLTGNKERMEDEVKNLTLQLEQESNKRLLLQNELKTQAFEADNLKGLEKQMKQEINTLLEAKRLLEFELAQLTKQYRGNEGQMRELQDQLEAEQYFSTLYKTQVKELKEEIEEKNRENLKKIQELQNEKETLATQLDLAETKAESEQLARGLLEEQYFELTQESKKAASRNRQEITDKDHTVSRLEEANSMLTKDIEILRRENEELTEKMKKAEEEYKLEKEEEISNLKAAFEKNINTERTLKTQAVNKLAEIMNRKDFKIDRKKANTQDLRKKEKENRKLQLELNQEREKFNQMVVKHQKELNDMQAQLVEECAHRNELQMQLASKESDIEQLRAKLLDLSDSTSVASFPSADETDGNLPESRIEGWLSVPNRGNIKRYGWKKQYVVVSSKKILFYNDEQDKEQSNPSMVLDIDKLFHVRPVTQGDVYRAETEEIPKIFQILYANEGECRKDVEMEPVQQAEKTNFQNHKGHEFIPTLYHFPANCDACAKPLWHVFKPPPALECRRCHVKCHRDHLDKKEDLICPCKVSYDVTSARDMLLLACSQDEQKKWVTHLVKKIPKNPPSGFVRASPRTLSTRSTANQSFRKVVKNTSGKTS
Sequence of Rho kinase 2 (O75116 whole entry): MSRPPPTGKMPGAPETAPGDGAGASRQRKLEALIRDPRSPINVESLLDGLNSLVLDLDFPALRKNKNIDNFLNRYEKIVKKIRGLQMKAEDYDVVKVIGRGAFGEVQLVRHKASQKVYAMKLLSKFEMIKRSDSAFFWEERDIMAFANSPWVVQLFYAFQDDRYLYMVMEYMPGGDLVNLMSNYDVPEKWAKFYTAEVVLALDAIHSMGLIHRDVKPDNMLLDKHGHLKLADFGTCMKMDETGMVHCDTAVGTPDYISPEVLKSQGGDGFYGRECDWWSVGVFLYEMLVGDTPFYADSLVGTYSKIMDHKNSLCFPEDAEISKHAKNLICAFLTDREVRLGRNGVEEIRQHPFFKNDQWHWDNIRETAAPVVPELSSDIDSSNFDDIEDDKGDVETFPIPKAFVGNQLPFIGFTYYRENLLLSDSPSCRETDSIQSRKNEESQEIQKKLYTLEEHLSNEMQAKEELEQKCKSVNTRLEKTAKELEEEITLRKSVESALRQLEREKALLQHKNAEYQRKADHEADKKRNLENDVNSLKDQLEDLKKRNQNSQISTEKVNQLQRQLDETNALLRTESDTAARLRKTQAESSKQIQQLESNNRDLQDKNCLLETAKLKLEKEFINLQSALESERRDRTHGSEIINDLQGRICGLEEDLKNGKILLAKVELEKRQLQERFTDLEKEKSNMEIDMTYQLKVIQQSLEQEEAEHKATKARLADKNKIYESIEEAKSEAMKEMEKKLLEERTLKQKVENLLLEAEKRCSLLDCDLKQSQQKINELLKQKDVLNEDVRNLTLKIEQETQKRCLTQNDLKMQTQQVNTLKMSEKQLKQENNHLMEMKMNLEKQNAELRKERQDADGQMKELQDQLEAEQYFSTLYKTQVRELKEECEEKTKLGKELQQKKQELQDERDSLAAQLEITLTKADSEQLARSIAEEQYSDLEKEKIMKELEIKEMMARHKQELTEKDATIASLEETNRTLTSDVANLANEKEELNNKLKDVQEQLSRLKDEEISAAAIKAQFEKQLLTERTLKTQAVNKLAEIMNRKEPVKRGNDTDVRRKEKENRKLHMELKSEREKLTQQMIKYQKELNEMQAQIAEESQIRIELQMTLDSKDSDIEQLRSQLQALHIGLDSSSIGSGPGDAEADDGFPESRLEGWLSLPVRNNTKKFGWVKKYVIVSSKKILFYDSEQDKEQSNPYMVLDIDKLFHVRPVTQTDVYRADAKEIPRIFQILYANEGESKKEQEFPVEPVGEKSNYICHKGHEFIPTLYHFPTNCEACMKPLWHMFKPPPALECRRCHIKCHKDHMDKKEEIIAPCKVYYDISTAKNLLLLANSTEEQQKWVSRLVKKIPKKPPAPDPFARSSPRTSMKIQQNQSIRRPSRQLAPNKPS

Row | SMILES | pKi [1] | pKi [2]
1 | CC1=C(C(=O)Nc2ccc3cnccc3c2)C(c2ccc(C)c(F)c2)n2nc(CO)cc2N1 (centres unmarked) [Example 58, 7-(3-fluoro-4-methylphenyl)-2-(hydroxymethyl)-N-(isoquinolin-6-yl)-5-methyl-4,7-dihydropyrazolo[1,5-a]pyrimidine-6-carboxamide] | > 7.30 | > 7.30
2 | CC1=C(C(=O)Nc2ccc3cnccc3c2)C(c2ccc(C)cc2F)n2nc(CO)cc2N1 (centres unmarked) [Example 59, 7-(2-fluoro-4-methylphenyl)-2-(hydroxymethyl)-N-(isoquinolin-6-yl)-5-methyl-4,7-dihydropyrazolo[1,5-a]pyrimidine-6-carboxamide] | > 7.30 | > 7.30
3 | CC1=C(C(=O)Nc2ccc3cnccc3c2)C(c2ccc3cc[nH]c3c2)n2nc(CO)cc2N1 (centres unmarked) [Example 63, 2-(hydroxymethyl)-7-(1H-indol-6-yl)-N-(isoquinolin-6-yl)-5-methyl-4,7-dihydropyrazolo[1,5-a]pyrimidine-6-carboxamide] | > 7.30 | > 7.30
4 | CC1=C(C(=O)Nc2ccc3cnccc3c2)C(c2ccc(Cl)cc2F)n2nc(CO)cc2N1 (centres unmarked) [Example 64, 7-(4-chloro-2-fluorophenyl)-2-(hydroxymethyl)-N-(isoquinolin-6-yl)-5-methyl-4,7-dihydropyrazolo[1,5-a]pyrimidine-6-carboxamide] | > 7.30 | > 7.30
5 | CC1=C(C(=O)Nc2ccc3cnccc3c2)C(c2ccc(C)cc2)n2nc(CO)cc2N1 (centres unmarked) [Example 66, 2-(hydroxymethyl)-N-(isoquinolin-6-yl)-5-methyl-7-(p-tolyl)-4,7-dihydropyrazolo[1,5-a]pyrimidine-6-carboxamide] | > 7.30 | > 7.30
6 | CC1=C(C(=O)Nc2ccc3[nH]ncc3c2)C(c2ccc(C)cc2)n2nc(CO)cc2N1 (centres unmarked) [Example 67, 2-(hydroxymethyl)-N-(1H-indazol-5-yl)-5-methyl-7-(p-tolyl)-4,7-dihydropyrazolo[1,5-a]pyrimidine-6-carboxamide] | > 7.30 | > 7.30
7 | CC1=C(C(=O)Nc2ccc3[nH]ncc3c2)C(c2ccc(Cl)cc2F)n2nc(CO)cc2N1 (centres unmarked) [Example 68, 7-(4-chloro-2-fluorophenyl)-2-(hydroxymethyl)-N-(1H-indazol-5-yl)-5-methyl-4,7-dihydropyrazolo[1,5-a]pyrimidine-6-carboxamide] | > 7.30 | > 7.30
8 | CC1=C(C(=O)Nc2ccc3[nH]ncc3c2)C(c2ccc(Cl)nc2)n2nc(CO)cc2N1 (centres unmarked) [Example 70, 7-(6-chloropyridin-3-yl)-2-(hydroxymethyl)-N-(1H-indazol-5-yl)-5-methyl-4,7-dihydropyrazolo[1,5-a]pyrimidine-6-carboxamide] | > 7.30 | > 7.30
9 | CC1=C(C(=O)Nc2ccc3[nH]ncc3c2)C(c2ccc(C(F)(F)F)cc2)n2nc(C(=O)O)cc2N1 (centres unmarked) [Example 73, 6-((1H-indazol-5-yl)carbamoyl)-5-methyl-7-(4-(trifluoromethyl)phenyl)-4,7-dihydropyrazolo[1,5-a]pyrimidine-2-carboxylic acid] | > 7.30 | > 7.30
10 | CC1=C(C(=O)Nc2ccc3[nH]ncc3c2)C(c2ccc(C)cc2)n2nc(C(=O)O)cc2N1 (centres unmarked) [Example 74, 6-((1H-indazol-5-yl)carbamoyl)-5-methyl-7-(p-tolyl)-4,7-dihydropyrazolo[1,5-a]pyrimidine-2-carboxylic acid] | > 7.30 | > 7.30
11 | CC1=C(C(=O)Nc2ccc3[nH]ncc3c2)C(c2ccc(F)cc2)n2nc(C(=O)O)cc2N1 (centres unmarked) [Example 75, 6-((1H-indazol-5-yl)carbamoyl)-7-(4-fluorophenyl)-5-methyl-4,7-dihydropyrazolo[1,5-a]pyrimidine-2-carboxylic acid] | > 7.30 | > 7.30
12 | CC1=C(C(=O)Nc2ccc3[nH]ncc3c2)C(c2ccc(C(F)(F)F)cc2)n2nc(C(=O)N3CCN(C)CC3)cc2N1 (centres unmarked) [Example 76, N-(1H-indazol-5-yl)-5-methyl-2-(4-methylpiperazine-1-carbonyl)-7-(4-(trifluoromethyl)phenyl)-4,7-dihydropyrazolo[1,5-a]pyrimidine-6-carboxamide] | > 7.30 | > 7.30
13 | CC1=C(C(=O)Nc2ccc3cnccc3c2)C(c2ccc(C(F)(F)F)c(F)c2)n2nc(C(=O)NCCN3CCCCC3)cc2N1 (centres unmarked) [Example 77, 7-(3-fluoro-4-(trifluoromethyl)phenyl)-N6-(isoquinolin-6-yl)-5-methyl-N2-(2-(piperidin-1-yl)ethyl)-4,7-dihydropyrazolo[1,5-a]pyrimidine-2,6-dicarboxamide] | > 7.30 | > 7.30
14 | CC1=C(C(=O)Nc2ccc3cnccc3c2)C(c2ccc(C(F)(F)F)c(F)c2)n2nc(C(=O)NCCN(C)C)cc2N1 (centres unmarked) [Example 79, N2-(2-(dimethylamino)ethyl)-7-(3-fluoro-4-(trifluoromethyl)phenyl)-N6-(isoquinolin-6-yl)-5-methyl-4,7-dihydropyrazolo[1,5-a]pyrimidine-2,6-dicarboxamide] | > 7.30 | > 7.30
15 | CC1=C(C(=O)Nc2ccc3cnccc3c2)C(c2ccc(C(F)(F)F)c(F)c2)n2nc(C(=O)N(C)CCN(C)C)cc2N1 (centres unmarked) [Example 80, N2-(2-(dimethylamino)ethyl)-7-(3-fluoro-4-(trifluoromethyl)phenyl)-N6-(isoquinolin-6-yl)-N2,5-dimethyl-4,7-dihydropyrazolo[1,5-a]pyrimidine-2,6-dicarboxamide] | > 7.30 | > 7.30
16 | CC1=C(C(=O)Nc2ccc3cnccc3c2)C(c2ccc(C(F)(F)F)c(F)c2)n2nc(C(=O)NCCN3CCN(C)CC3)cc2N1 (centres unmarked) [Example 81, 7-(3-fluoro-4-(trifluoromethyl)phenyl)-N6-(isoquinolin-6-yl)-5-methyl-N2-(2-(4-methylpiperazin-1-yl)ethyl)-4,7-dihydropyrazolo[1,5-a]pyrimidine-2,6-dicarboxamide] | > 7.30 | > 7.30
17 | CC1=C(C(=O)Nc2ccc3cnccc3c2)C(c2ccc(C(F)(F)F)c(F)c2)n2nc(C(=O)NCCN3CCOCC3)cc2N1 (centres unmarked) [Example 82, 7-(3-fluoro-4-(trifluoromethyl)phenyl)-N6-(isoquinolin-6-yl)-5-methyl-N2-(2-morpholinoethyl)-4,7-dihydropyrazolo[1,5-a]pyrimidine-2,6-dicarboxamide] | > 7.30 | > 7.30
18 | CC1=C(C(=O)Nc2ccc3cnccc3c2)C(c2ccc(C(F)(F)F)c(F)c2)n2nc(C(=O)N(C)CCN3CCOCC3)cc2N1 (centres unmarked) [Example 83, 7-(3-fluoro-4-(trifluoromethyl)phenyl)-N6-(isoquinolin-6-yl)-N2,5-dimethyl-N2-(2-morpholinoethyl)-4,7-dihydropyrazolo[1,5-a]pyrimidine-2,6-dicarboxamide] | > 7.30 | > 7.30
19 | CC1=C(C(=O)Nc2ccc3cnccc3c2)C(c2ccc(C(F)(F)F)c(F)c2)n2nc(C(=O)NCC3CCN(C)CC3)cc2N1 (centres unmarked) [Example 84, 7-(3-fluoro-4-(trifluoromethyl)phenyl)-N6-(isoquinolin-6-yl)-5-methyl-N2-((1-methylpiperidin-4-yl)methyl)-4,7-dihydropyrazolo[1,5-a]pyrimidine-2,6-dicarboxamide] | > 7.30 | > 7.30
20 | CC1=C(C(=O)Nc2ccc3cnccc3c2)C(c2ccc(C(F)(F)F)c(F)c2)n2nc(C(=O)N(C)CC3CCN(C)CC3)cc2N1 (centres unmarked) [Example 85, 7-(3-fluoro-4-(trifluoromethyl)phenyl)-N6-(isoquinolin-6-yl)-N2,5-dimethyl-N2-((1-methylpiperidin-4-yl)methyl)-4,7-dihydropyrazolo[1,5-a]pyrimidine-2,6-dicarboxamide] | > 7.30 | > 7.30
21 | CC1=C(C(=O)Nc2ccc3cnccc3c2)C(c2ccc(C(F)(F)F)c(F)c2)n2nc(C(=O)N3C[C@H]4CN(C)C[C@H]4C3)cc2N1 (some centres unmarked) [Example 86, 7-(3-fluoro-4-(trifluoromethyl)phenyl)-N-(isoquinolin-6-yl)-5-methyl-2-(5-methyloctahydropyrrolo[3,4-c]pyrrole-2-carbonyl)-4,7-dihydropyrazolo[1,5-a]pyrimidine-6-carboxamide] | > 7.30 | > 7.30
22 | CC1=C(C(=O)Nc2ccc3cnccc3c2)C(c2ccc(C(F)(F)F)c(F)c2)n2nc(C(=O)N3CCC(N(C)C)CC3)cc2N1 (centres unmarked) [Example 87, 2-(4-(dimethylamino)piperidine-1-carbonyl)-7-(3-fluoro-4-(trifluoromethyl)phenyl)-N-(isoquinolin-6-yl)-5-methyl-4,7-dihydropyrazolo[1,5-a]pyrimidine-6-carboxamide] | > 7.30 | > 7.30
23 | CC1=C(C(=O)Nc2ccc3cnccc3c2)C(c2ccc(C(F)(F)F)c(F)c2)n2nc(C(=O)N(C)C3CCN(C)CC3)cc2N1 (centres unmarked) [Example 88, 7-(3-fluoro-4-(trifluoromethyl)phenyl)-N6-(isoquinolin-6-yl)-N2,5-dimethyl-N2-(1-methylpiperidin-4-yl)-4,7-dihydropyrazolo[1,5-a]pyrimidine-2,6-dicarboxamide] | > 7.30 | > 7.30
24 | CC1=C(C(=O)Nc2ccc3cnccc3c2)C(c2ccc(C(F)(F)F)c(F)c2)n2nc(C(=O)N(C)CCCN(C)C)cc2N1 (centres unmarked) [Example 89, N2-(3-(dimethylamino)propyl)-7-(3-fluoro-4-(trifluoromethyl)phenyl)-N6-(isoquinolin-6-yl)-N2,5-dimethyl-4,7-dihydropyrazolo[1,5-a]pyrimidine-2,6-dicarboxamide] | > 7.30 | > 7.30
25 | CC1=C(C(=O)Nc2ccc3[nH]ncc3c2)C(c2ccc(F)cc2)n2nc(C(=O)N3CCOCC3)cc2N1 (centres unmarked) [Example 90, 7-(4-fluorophenyl)-N-(1H-indazol-5-yl)-5-methyl-2-(morpholine-4-carbonyl)-4,7-dihydropyrazolo[1,5-a]pyrimidine-6-carboxamide] | > 7.30 | > 7.30
